The values below come from patent US20240110183A1, “ANTIFIBROTIC AND ANTITUMOR ACTIVITY OF CD63 BLOCKADE” (The Board of Trustees of the Leland Stanford Junior …, priority 2020, published 2024).

The test has as its system HK2, NRK52E, NRK49F cell lines. The test is described as follows: RT-qPCR analysis of kidney cell lines treated with TGFβ1. Type of test: cell-based, human, rat. Particulars: TGFβ1 10 ng/ml, FIG. 21. Here is the method:
FIG. 21A-FIG. 21C. Activation of TGFβ1 signaling pathway elevated the expression of fibrotic related proteins in 3 kidney cell lines. (FIG. 21 FIG. 21A) Human epithelial (HK2), (FIG. 21 B) rat epithelial (NRK52E), (FIG. 21C) rat fibroblast (NRK49F) cell lines were treated with TGFβ1 (10 ng/ml) or TGFβ1 (10 ng/ml) plus LY2109761 (2.5 μM) for indicated times in hours.
Activation of TGFβ1 signaling pathway elevated the expression of fibrotic related proteins in 3 kidney cell lines. Human epithelial (HK2), rat epithelial (NRK52E), rat fibroblast (NRK49F) cell lines were treated with TGFβ1 (10 ng/ml) or TGFβ1 (10 ng/ml) plus LY2109761 (2.5 μM) for times indicated in hours as shown in FIG. 21 A-C.
For orientation: Quantitative PCR measures a nucleic acid by following its amplification.

With “TGFβ1: TGFβ1 (10 ng/ml) used to activate the TGFβ1 signaling pathway in kidney cell lines”, under “HK2, NRK52E, NRK49F”, the “expression of CD63 and its known interactor TIMP1” value was “not increased”. In addition, where the note is “human epithelial (HK2), rat epithelial (NRK52E), rat fibroblast (NRK49F)”, the “expression of fibrotic related proteins” value is reported as “elevated”.
